In PMC6215995 (International Journal for Parasitology: Drugs and Drug …, 2018):
Like-named read-outs stand apart in the source and are kept apart here. Marks after values point to notes of the source that are not given here.

Legend:
P. falciparum 3D7 = experiment: Antiplasmodial SYBR green assay, CQ-sensitive strain; type: cell-based; details: for Selective index 3D7: ratio between MDL50 and IC50, 3D7
Protocol: Briefly, the plates were centrifuged at 700g for 5 min at room temperature to remove the medium, washed with PBS and incubated for 30 min with lysis buffer solution [2.4228 g TRIS, ultra-pure for 20 mM solution, pH 7.5; 1.8612 g of EDTA 5 mM ultrapure for 5 mM solution; 80 μg Saponin (0.008% w/v); 800 μL of Triton X-100 (0.08% v/v); water Type I] and SYBR green I DNA stain (1:20000). The fluorescence of uninfected erythrocytes was considered as background.
(§1) The half-maximal drug inhibitory concentration (IC50) was estimated by curve fitting using the software from the OriginLab Corporation (USA) and compared to the parasite growth in the drug-free medium.

P. falciparum K1 = experiment: Antiplasmodial SYBR green assay, multidrug-resistant strain; type: cell-based; details: for Selective index K1: ratio between MDL50 and IC50, K1
Protocol: The freshly sorbitol synchronized ring stages were immediately incubated with the test compounds at various concentrations (from 10 to 0.152 μM or 1.0–0.0152 μM) that were previously solubilized in 0.05% dimethyl sulfoxide (DMSO) (v/v) ([Lambros and Vanderberg, 1979]). […] The antiplasmodial activity of the compounds was measured through SYBR green assay ([Smilkstein et al., 2004]). Briefly, the plates were centrifuged at 700g for 5 min at room temperature to remove the medium, washed with PBS and incubated for 30 min with lysis buffer solution [2.4228 g TRIS, ultra-pure for 20 mM solution, pH 7.5; 1.8612 g of EDTA 5 mM ultrapure for 5 mM solution; 80 μg Saponin (0.008% w/v); 800 μL of Triton X-100 (0.08% v/v); water Type I] and SYBR green I DNA stain (1:20000). The fluorescence of uninfected erythrocytes was considered as background. Fluorescence was measured on fluorimeter (SpectraMax340PC384) at 485/535 nm.
as §1

BGM-VN = details: MTT, 24 h
Protocol: The compounds (20 μL), at various concentrations (400–1.0 μM), were placed in the 96-well plates, incubated with the cultured cells for 24 h under a 5% CO2 atmosphere at 37 °C and then the 3-(4,5-dimethylthiazol-2-yl)-2,5-diphenyltetrazolium bromide (MTT) solution (5 mg/mL; 20 μL/well for 3 h) was used to evaluate the mitochondrial viability. The supernatants were carefully removed and 100 μL DMSO were added to each well and mixed to solubilize the formazan crystals. The optical density was determined at 570 and 630 nm (background) (SpectraMax340PC384). The cell viability was expressed as the percentage of the control absorbance in the untreated cells after subtracting the appropriate background. Each test was performed in triplicate in at least two different experiments.

β-hematin formation = experiment: Inhibition of β-hematin formation assay; type: biochemical; details: MOG lipid catalyst, sodium acetate pH 4.8, 37 °C, 2 h; read-out: β-hematin inhibition IC50 (mM)± SD
Protocol: The assay was performed using a lipid as a catalyst to promote crystallization ([Pisciotta et al., 2007]; [Fitch et al., 1999]). Briefly, drug stock solutions were prepared in DMSO and were used at a final concentration of up to 30 mM. […] After incubation for 30 min at room temperature, the amount of solubilized monomeric heme was determined by measuring the absorbance at 405 nm. […] The absorbance was read at 405 nm to determine the total amount of heme present in each well. The inhibition of heme crystallization was determined as a function of the amount of monomeric heme that was not crystallized divided by the total amount of heme present in the assay mixture. The results are expressed as IC50 values based on the percentage inhibition of β-hematin formation by the compounds […] and DAQ.

P. berghei NK65 = experiment: Suppressive test in P. berghei infected mice; type: in vivo; details: for Reduction of parasitemia until day 11 after infection / Mice survival in comparison with the non-treated control / Parasitemia on day 5 / Parasitemia %reduction on day 5 / Parasitemia on day 7 / Parasitemia %reduction on day 7 / Parasitemia on day 9 / Parasitemia %reduction on day 9 / Parasitemia on day 11 / Parasitemia %reduction on day 11 / Parasitemia on day 13 / Parasitemia %reduction on day 13 / Parasitemia on day 15 / Parasitemia %reduction on day 15 / Survival: three consecutive days; for Mice survival in comparison with the non-treated control: Mann-Whitney test p < 0.05; for Parasitemia %reduction on day 5: day 5, vs non treated; for Parasitemia %reduction on day 7: day 7, vs non treated; for Parasitemia %reduction on day 9: day 9, vs non treated; for Parasitemia %reduction on day 11: day 11, vs non treated; for Parasitemia %reduction on day 13: day 13, vs non treated; for Parasitemia %reduction on day 15: day 15, vs non treated
Protocol: The P. berghei NK65 strain was obtained as a donation from New York University and maintained through weekly blood passages. For the experiments, groups of up to 30 mice were inoculated i.p. with 1 × 10^5 infected erythrocytes, kept together for about 24 h, then randomly distributed into groups of five per cage. […] On days 5–15 after the parasite inoculation, blood was taken from the tail of each mouse and used to prepare thin smears that were methanol-fixed, Giemsa-stained, and examined microscopically (1000×) to determine parasitemia. […] The experiments were performed twice.

[1] = Plasmodium falciparum, 3D7 CQ-sensitive strain, read-out: IC50 (nM ± SD) P. falciparum 3D7
[2] = Plasmodium falciparum, K1 multidrug-resistant strain, read-out: IC50 (nM ± SD) P. falciparum K1
[3] = oral 50 mg/kg, followed until day 30
[4] = 3D7 CQ-sensitive strain, read-out: IC50 (nM ± SD) P. falciparum 3D7
[5] = K1 multidrug-resistant strain, read-out: IC50 (nM ± SD) P. falciparum K1
[6] = 20 mg/kg, followed until day 30

Compound	IC50 (P. falciparum 3D7; [1])	Selective index 3D7 (P. falciparum 3D7)	IC50 (P. falciparum K1; [2])	Selective index K1 (P. falciparum K1)	MLD50 BGM-VN (BGM-VN)	IC50 (β-hematin formation)	Reduction of parasitemia until day 11 after infection (P. berghei NK65; oral 50 mg/kg)	Mice survival in comparison with the non-treated control (P. berghei NK65; oral 50 mg/kg)	Parasitemia on day 5 (P. berghei NK65; oral 50 mg/kg)	Parasitemia on day 7 (P. berghei NK65; oral 50 mg/kg)	Parasitemia %reduction on day 7 (P. berghei NK65; oral 50 mg/kg)	Parasitemia on day 9 (P. berghei NK65; oral 50 mg/kg)	Parasitemia %reduction on day 9 (P. berghei NK65; oral 50 mg/kg)	Parasitemia on day 11 (P. berghei NK65; oral 50 mg/kg)	Parasitemia %reduction on day 11 (P. berghei NK65; oral 50 mg/kg)	Parasitemia on day 13 (P. berghei NK65; oral 50 mg/kg)	Parasitemia %reduction on day 13 (P. berghei NK65; oral 50 mg/kg)	Parasitemia on day 15 (P. berghei NK65; oral 50 mg/kg)	Parasitemia %reduction on day 15 (P. berghei NK65; oral 50 mg/kg)	Survival (P. berghei NK65; [3])	further results
NCCNc1ccnc2cc(Cl)ccc12 [CEQ, N-(2-aminoethyl)-7-chloroquinolin-4-amine]	273 ± 12 nM	655	218 ± 44 nM	821	179 ± 40 µM	1.2 ± 0.76 mM	100%	significantly higher	0.00	0.00	100%	0.00	100%	0.00	100%	0.57	94%	4	80%	26 ± 6 ^b	Parasitemia %reduction on day 5 (P. berghei NK65; oral 50 mg/kg): 100%
N-(4-(dimethylamino)but-2-enyl)-7-chloro-quinolin-4-amine [DAQ]					1481 ± 39 µM	0.15 ± 0.03 mM	100%	significantly higher	0.00	0.00	100%	0.00	100%	0.00	100%	0.77	92%	3.67	82%	28 ± 1 ^b	IC50 (P. falciparum 3D7; [4]): 46 ± 4 nM; IC50 (P. falciparum K1; [5]): 50 ± 3 nM; Parasitemia %reduction on day 5 (P. berghei NK65; oral 50 mg/kg): 100%
CCN(CC)CCCC(C)Nc1ccnc2cc(Cl)ccc12 (centres unmarked) [CQ, Chloroquine, reference compound]						0.76 ± 0.46 mM															IC50 (P. falciparum 3D7; Plasmodium falciparum, 3D7, read-out: IC50 (nM ± SD) P. falciparum 3D7): 36 ± 12 nM; IC50 (P. falciparum K1; Plasmodium falciparum, K1, read-out: IC50 (nM ± SD) P. falciparum K1): 177 ± 20 nM; Survival in words (P. berghei NK65; [6]): survived until the last day of the experiment; Parasitemia on day 5 (P. berghei NK65; 20 mg/kg): 0.00; Parasitemia %reduction on day 5 (P. berghei NK65; 20 mg/kg): 100%; Parasitemia on day 7 (P. berghei NK65; 20 mg/kg): 0.00; Parasitemia %reduction on day 7 (P. berghei NK65; 20 mg/kg): 100%; Parasitemia on day 9 (P. berghei NK65; 20 mg/kg): 0.00; Parasitemia %reduction on day 9 (P. berghei NK65; 20 mg/kg): 100%; Parasitemia on day 11 (P. berghei NK65; 20 mg/kg): 0.00; Parasitemia %reduction on day 11 (P. berghei NK65; 20 mg/kg): 100%; Parasitemia on day 13 (P. berghei NK65; 20 mg/kg): 0.00; Parasitemia %reduction on day 13 (P. berghei NK65; 20 mg/kg): 100%; Parasitemia on day 15 (P. berghei NK65; 20 mg/kg): 0.00; Parasitemia %reduction on day 15 (P. berghei NK65; 20 mg/kg): 100%; Survival (P. berghei NK65; [6]): >30 ^b; Parasitemia in words (P. berghei NK65; 20 mg/kg, until the last day of evaluation (day 15)): no parasitemia
O=C(O)CNc1ccnc2cc(Cl)ccc12 [GIQ, Acid 2-(7-chloroquinolin-4-ylamino) acetic]	> 10000 nM	Inactive	> 10000 nM	Inactive	>1000 µM	7.6 ± 0.2 mM															Activity against P. falciparum in words (P. falciparum 3D7; sensitive and resistant parasites, highest dose 10 μM): inactive in all doses tested
N-(prop-2-enyl)-7-chloroquinoline-4-amine [PCQ]					407 ± 185 µM	3 ± 3 mM		not increased	1.04	4.83	10%	5.75	8%	7.5	32%	7.0	32%	34.5	0%	17 ± 8	IC50 (P. falciparum 3D7; [4]): 377 ± 14 nM; IC50 (P. falciparum K1; [5]): 405 ± 32 nM; Parasitemia %reduction on day 5 (P. berghei NK65; oral 50 mg/kg, 50 mg/kg): 73%
